Measured values taken from ChEMBL document CHEMBL1909046, “DrugMatrix in vitro pharmacology data”.

What was measured:
[1] = DRUGMATRIX: beta-Lactamase enzyme inhibition (substrate: Nitrocefin); design: species or system Bacillus cereus; settings: Not Active = under 50% inhibition at 10 µM
[2] = DRUGMATRIX: Calcium Channel Type L, Dihydropyridine radioligand binding (ligand: [3H] Nitrendipine); format: cell membranes, Rattus norvegicus, Wistar, Cerebral cortex, Membrane; settings: Not Active = under 50% inhibition at 10 µM
[3] = target: Substance-P receptor (Homo sapiens, UniProt P25103); format: cell membranes, CHO, Membrane; settings: cho; also: in other assays of this panel Not Active means under 50% inhibition at 10 µM
[4] = DRUGMATRIX: Calcium Channel Type L, Phenylalkylamine radioligand binding (ligand: [3H] (-)-Desmethoxyverapamil (D-888)); format: cell membranes, Rattus norvegicus, Wistar, Brain, Membrane; settings: Not Active = under 50% inhibition at 10 µM
[5] = target: Carbonic anhydrase 2 (Homo sapiens, UniProt P00918); assay: DRUGMATRIX: Carbonic Anhydrase II enzyme inhibition (substrate: 4-Nitrophenyl acetate (4-NPA)); format: tissue-based; settings: erythrocyte; Not Active = under 50% inhibition at 10 µM
[6] = DRUGMATRIX: Potassium Channel [KATP] radioligand binding (ligand: [3H] Glyburide); format: cell membranes, Membrane; settings: hit-t15; Not Active = under 50% inhibition at 10 µM
[7] = target: Cytochrome P450 3A4 (Homo sapiens, UniProt P08684); settings: bti-tn-5b1-4; also: in other assays of this panel Not Active means under 50% inhibition at 10 µM
Cytochrome P450 3A4, sequence (P08684 whole entry): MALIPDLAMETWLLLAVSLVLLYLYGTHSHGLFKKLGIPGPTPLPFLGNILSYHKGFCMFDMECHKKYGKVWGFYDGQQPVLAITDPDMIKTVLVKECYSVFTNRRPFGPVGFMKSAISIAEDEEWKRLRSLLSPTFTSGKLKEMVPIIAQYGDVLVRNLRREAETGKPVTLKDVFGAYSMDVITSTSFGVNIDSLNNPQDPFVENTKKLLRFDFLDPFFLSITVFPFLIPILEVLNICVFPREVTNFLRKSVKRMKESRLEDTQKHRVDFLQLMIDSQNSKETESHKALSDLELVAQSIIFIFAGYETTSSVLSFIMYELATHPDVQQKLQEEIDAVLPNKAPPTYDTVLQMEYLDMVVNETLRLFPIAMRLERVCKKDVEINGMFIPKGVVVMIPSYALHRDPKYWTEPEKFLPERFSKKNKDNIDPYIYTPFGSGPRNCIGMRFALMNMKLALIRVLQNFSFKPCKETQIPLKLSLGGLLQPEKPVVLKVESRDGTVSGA

Substance-P receptor, sequence (P25103 whole entry): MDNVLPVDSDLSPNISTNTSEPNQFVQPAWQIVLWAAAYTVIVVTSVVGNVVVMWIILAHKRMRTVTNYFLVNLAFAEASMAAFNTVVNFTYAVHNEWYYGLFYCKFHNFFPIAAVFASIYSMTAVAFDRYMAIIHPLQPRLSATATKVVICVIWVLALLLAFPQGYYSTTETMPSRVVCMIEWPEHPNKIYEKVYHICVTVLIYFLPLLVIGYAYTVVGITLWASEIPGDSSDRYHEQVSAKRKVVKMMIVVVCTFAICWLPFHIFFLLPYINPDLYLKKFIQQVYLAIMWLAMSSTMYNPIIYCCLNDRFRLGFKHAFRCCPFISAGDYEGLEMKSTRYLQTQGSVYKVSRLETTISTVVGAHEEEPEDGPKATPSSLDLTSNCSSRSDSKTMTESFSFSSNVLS

CC(C)Oc1ccc2c(=O)c(-c3ccccc3)coc2c1 [IPRIFLAVONE]
Not Active: IC50 [1] | Ki [1] | IC50 [2] | Ki [2] | IC50 [3] | IC50 [4] | Ki [4] | IC50 [5] | IC50 [6] | Ki [6] | IC50 [7] | Ki [7]

CNC1(c2ccccc2Cl)CCCCC1=O (stereo not drawn) [KETAMINE]
Not Active: IC50 [1] | Ki [1] | IC50 [2] | Ki [2] | IC50 [3] | IC50 [4] | Ki [4] | IC50 [5] | IC50 [6] | Ki [6] | IC50 [7] | Ki [7]

O=C(O)c1cn(-c2ccc(F)cc2)c2cc(N3CCNCC3)c(F)cc2c1=O [SARAFLOXACIN]
Not Active: IC50 [1] | Ki [1] | IC50 [2] | Ki [2] | IC50 [3] | IC50 [4] | Ki [4] | IC50 [5] | IC50 [6] | Ki [6] | IC50 [7] | Ki [7]

SODIUM ORTHOVANAD
Not Active: IC50 [1] | Ki [1] | IC50 [2] | Ki [2] | IC50 [3] | Ki [3] | IC50 [4] | Ki [4] | IC50 [5] | Ki [5] | IC50 [6] | Ki [6] | IC50 [7] | Ki [7]

Cn1c(=O)c2nc[nH]c2n(C)c1=O.O [THEOPHYLLINE]
Not Active: IC50 [1] | Ki [1] | IC50 [2] | Ki [2] | IC50 [3] | IC50 [4] | Ki [4] | IC50 [5] | IC50 [6] | Ki [6] | IC50 [7] | Ki [7]

CO[C@@H]1[C@@H](OC)[C@H](C)[C@@](O)(CC(=O)O)O[C@H]1[C@H](C)[C@H]1O[C@@]2(CC[C@@](C)([C@H]3CC[C@@](C)([C@@H]4O[C@@H]([C@H]5O[C@](C)(O)[C@H](C)C[C@@H]5C)C[C@@H]4O[C@@H]4C[C@H](OC)[C@@H](OC)[C@H](C)O4)O3)O2)C[C@H](O)[C@H]1C [MADURAMICIN ACID]
Not Active: IC50 [1] | Ki [1] | IC50 [2] | Ki [2] | IC50 [3] | IC50 [4] | Ki [4] | IC50 [5] | IC50 [6] | Ki [6] | IC50 [7] | Ki [7]

CC[C@@H](C(=O)[C@@H](C)[C@@H](O)[C@H](C)[C@@H]1O[C@@H]([C@@H](CC)C(=O)O)CC[C@@H]1C)[C@H]1O[C@]2(C=C[C@@H](O)[C@]3(CC[C@@](C)([C@H]4CC[C@](O)(CC)[C@H](C)O4)O3)O2)[C@H](C)C[C@@H]1C [SALINOMYCIN]
Not Active: IC50 [1] | Ki [1] | IC50 [2] | Ki [2] | IC50 [3] | IC50 [4] | Ki [4] | IC50 [5] | IC50 [6] | Ki [6] | IC50 [7] | Ki [7]

Clc1ccccc1CN1CCc2sccc2C1 [TICLOPIDINE]
Not Active: IC50 [1] | Ki [1] | IC50 [2] | Ki [2] | IC50 [3] | IC50 [4] | Ki [4] | IC50 [5] | IC50 [6] | Ki [6] | IC50 [7] | Ki [7]

CS(=O)(=O)c1ccc([C@@H](O)[C@@H](CO)NC(=O)C(Cl)Cl)cc1 [THIAMPHENICOL]
Not Active: IC50 [1] | Ki [1] | IC50 [2] | Ki [2] | IC50 [3] | IC50 [4] | Ki [4] | IC50 [5] | IC50 [6] | Ki [6] | IC50 [7] | Ki [7]

O=C(Oc1ccccc1C(=O)O)c1ccccc1O [SALSALATE]
Not Active: IC50 [1] | Ki [1] | IC50 [2] | Ki [2] | IC50 [3] | IC50 [4] | Ki [4] | IC50 [5] | IC50 [6] | Ki [6] | IC50 [7] | Ki [7]

CC(C)NCC(O)c1ccc(NS(C)(=O)=O)cc1 (stereo not drawn) [SOTALOL]
Not Active: IC50 [1] | Ki [1] | IC50 [2] | Ki [2] | IC50 [3] | IC50 [4] | Ki [4] | IC50 [5] | IC50 [6] | Ki [6] | IC50 [7] | Ki [7]

MANGANESE CHLORIDE ANHYDROUS
Not Active: IC50 [1] | Ki [1] | IC50 [2] | Ki [2] | IC50 [3] | Ki [3] | IC50 [4] | Ki [4] | IC50 [5] | Ki [5] | IC50 [6] | Ki [6] | IC50 [7] | Ki [7]

Nc1cc(N2CCCCC2)nc(N)[n+]1[O-] [MINOXIDIL]
Not Active: IC50 [1] | Ki [1] | IC50 [2] | Ki [2] | IC50 [3] | IC50 [4] | Ki [4] | IC50 [5] | IC50 [6] | Ki [6] | IC50 [7] | Ki [7]

Cc1cccc(C)c1OCC(C)N (stereo not drawn) [MEXILETINE]
Not Active: IC50 [1] | Ki [1] | IC50 [2] | Ki [2] | IC50 [3] | IC50 [4] | Ki [4] | IC50 [5] | IC50 [6] | Ki [6] | IC50 [7] | Ki [7]

COc1c2occc2cc2ccc(=O)oc12 [METHOXSALEN]
Not Active: IC50 [1] | Ki [1] | IC50 [2] | Ki [2] | IC50 [3] | IC50 [4] | Ki [4] | IC50 [5] | IC50 [6] | Ki [6] | IC50 [7] | Ki [7]

C[C@H]1C[C@@H]2[C@H]([C@@H](O)C[C@@]3(C)[C@H]2CC[C@]3(O)C(=O)CO)[C@@]2(C)C=CC(=O)C=C12 [METHYLPREDNISOLONE]
Not Active: IC50 [1] | Ki [1] | IC50 [2] | Ki [2] | IC50 [3] | IC50 [4] | Ki [4] | IC50 [5] | IC50 [6] | Ki [6] | IC50 [7] | Ki [7]

CC(c1cc2ccccc2s1)N(O)C(N)=O (stereo not drawn) [ZILEUTON]
Not Active: IC50 [1] | Ki [1] | IC50 [2] | Ki [2] | IC50 [3] | IC50 [4] | Ki [4] | IC50 [5] | IC50 [6] | Ki [6] | IC50 [7] | Ki [7]
